Assay: xn = mol fraction of the nth substance listed
Conditions: 101 kPa, Liquid; for viscosity: Falling or rolling sphere viscometry; for speed of sound: Sing-around technique in a fixed-path interferometer; for mass density: Vibrating tube method

CCCCCC[n+]1ccn(C)c1.O=S(=O)([N-]S(=O)(=O)C(F)(F)F)C(F)(F)F + CCO
Conditions	mass density [kg/m3]	speed of sound [m/s]	viscosity [mPa·s]
278.15 K, x1 = 0.047	933.23	1208.7	2.69
278.15 K, x1 = 0.097	1026.67	1211.4	4.32
278.15 K, x1 = 0.198	1146.24	1222.7	9.53
278.15 K, x1 = 0.292	1215.04	1233.9	16.27
278.15 K, x1 = 0.39	1263.14	1242.8	25.73
278.15 K, x1 = 0.47	1292.55	1250.3	35.73
278.15 K, x1 = 0.596	1327.21	1258.1	56.91
278.15 K, x1 = 0.694	1347.34	1262.6	79.17
278.15 K, x1 = 0.799	1364.86	1267.2	112.54
278.15 K, x1 = 0.903	1379.2	1271.2	154.54
278.15 K, x1 = 1	1390.3	1274.6	211.31
298.15 K, x1 = 0.047	915.22	1145.7	1.73
298.15 K, x1 = 0.097	1008.17	1152.5	2.61
298.15 K, x1 = 0.198	1127.27	1168.4	4.98
298.15 K, x1 = 0.292	1195.96	1181.9	7.97
298.15 K, x1 = 0.39	1244.05	1192.3	12.1
298.15 K, x1 = 0.47	1273.5	1200.6	15.94
298.15 K, x1 = 0.596	1308.27	1209.2	23.72
298.15 K, x1 = 0.694	1328.48	1214.1	31.3
298.15 K, x1 = 0.799	1346.07	1218.9	41.44
298.15 K, x1 = 0.903	1360.48	1223.1	53.7
298.15 K, x1 = 1	1371.64	1226.8	70.46
318.15 K, x1 = 0.047	896.92	1085	1.18
318.15 K, x1 = 0.097	989.44	1095.9	1.71
318.15 K, x1 = 0.198	1108.22	1116.3	3.05
318.15 K, x1 = 0.292	1176.89	1131.9	4.64
318.15 K, x1 = 0.39	1225.05	1143.8	6.7
318.15 K, x1 = 0.47	1254.61	1153	8.61
318.15 K, x1 = 0.596	1289.55	1162.6	12.33
318.15 K, x1 = 0.694	1309.88	1168	15.72
318.15 K, x1 = 0.799	1327.59	1173.4	20.13
318.15 K, x1 = 0.903	1342.08	1178	24.94
318.15 K, x1 = 1	1353.31	1182	30.22
338.15 K, x1 = 0.047	878.04	1025.6	–
338.15 K, x1 = 0.097	970.28	1040.6	–
338.15 K, x1 = 0.198	1088.96	1065.5	–
338.15 K, x1 = 0.292	1157.75	1083.5	–
338.15 K, x1 = 0.39	1206.1	1097	–
338.15 K, x1 = 0.47	1235.83	1107.2	–
338.15 K, x1 = 0.596	1271.01	1118	–
338.15 K, x1 = 0.694	1291.5	1124	–
338.15 K, x1 = 0.799	1309.35	1130	–
338.15 K, x1 = 0.903	1323.94	1135.2	–
338.15 K, x1 = 1	1335.25	1139.3	–
